Where two headings read alike, the source gives them in different places.
What was measured:
Format in all cases: cell-based
[1] = tested on: p-STAT5; assay: Immunoblot of p-STAT5 (downstream signaling) in HEL cells; details: immunoblot (FIG. 1)
Experimental: (§1) To confirm JA-189 and JA-213 are true JAK degraders, HEL cell were treated with these two compounds at various compounds concentrations.
(§2) HEL, RS4;11, MV4;11, Kasumi-1 and other cells were cultured at 37° C. with 5% CO2 in RPMI 1640 or DMEM Medium supplemented with 10% fetal bovine serum. Cells were authenticated using the short tandem repeat (STR) assays. Mycoplasma test results were negative.
(§3) Rabbit anti-JAK1 antibody (3344S), anti-JAK2 antibody (3230S), anti-JAK3 antibody (8827S), anti-TYK2 antibody (14193S), anti-FLT3 antibody (3462S), anti-RET antibody (14556S), anti-phospho-STAT3 (Tyr705) antibody (9145S) and anti-phospho-STAT5 (Tyr694) antibody (4322S) were purchased from Cell Signaling Technology. Rabbit anti-GSPT1 antibody (ab126090) was purchased from Abcam. HRP-conjugated anti-α-tubulin antibody was produced in house. Media and other cell culture reagents were purchased from Thermo Fisher. The CellTiter-Glo Luminescent Assay kit was purchased from Promega.
(§4) Cultured cells were washed with cold PBS once and lysed in cold RIPA buffer supplemented with protease inhibitors and phosphatase inhibitors (Beyotime Biotechnology). […] Total protein concentrations in the lysates were determined by BCA assays (Beyotime Biotechnology). […] Protein bands were quantitated using the accompanied software provided by Bio-Rad.

[2] = tested on: MM.1S cells; assay: Cell viability assay (CellTiter-Glo) in MM.1S cells; details: Homo sapiens, MM1.S, 72 h, Multiple Myeloma, 3 days
Experimental: (§5) MV4;11, RS4;11, Kasumi-1, HEL and other cells were treated with NVP-BSK805, TG101209 or selected degraders for 3 days at indicated concentrations following a 3-fold serial dilution.
as §2
(§6) Cells were seeded at a density of 5000 cells per well in 96-well assay plates and treated with test compounds following a 8-point or 12-point 3-fold serial dilution. Three days later, cell viability was determined using the CellTiter-Glo assay kit according to the manufacturer's instructions. The dose-response curves were determined and IC50 values were calculated using the GraphPad Prism software following a nonlinear regression (least squares fit) method.

[3] = tested on: SU-DHL-1 cells; assay: Cell viability assay (CellTiter-Glo) in SU-DHL-1 cells; details: Homo sapiens, 72 h, SU-DHL-1, large cell lymphoma, 3 days
Experimental: as §5, §2, §6

[4] = tested on: Kasumi-1 cells; assay: Cell viability assay (CellTiter-Glo) in Kasumi-1 cells; details: for IC50: Homo sapiens, 72 h, Kasumi-1, AML, cell viability, 3 days; for cell viability inhibition in combination with pomalidomide: Kasumi-1, 3 days, pomalidomide at 10 μM (FIG. 4)
Experimental: as §5, §2, §6

[5] = tested on: p-STAT3; assay: Immunoblot of p-STAT3 (downstream signaling) in HEL cells; details: immunoblot (FIG. 1)
Experimental: as §1, §2, §3, §4

[6] = tested on: Jurkat cells; assay: Cell viability assay (CellTiter-Glo) in Jurkat cells; details: Homo sapiens, 72 h, T-ALL, 3 days
Experimental: as §5, §2, §6

[7] = biological target: T1, JAK3 (Homo sapiens, UniProt P52333); assay: Immunoblot of JAK3 protein level in HEL cells; details: immunoblot (FIG. 1)
T1 construct: immunoblot of JAK1/2/3 proteins expressed in HEL cells; endogenous in cells; host or cells: HEL cells
T1 sequence (P52333 1-1124): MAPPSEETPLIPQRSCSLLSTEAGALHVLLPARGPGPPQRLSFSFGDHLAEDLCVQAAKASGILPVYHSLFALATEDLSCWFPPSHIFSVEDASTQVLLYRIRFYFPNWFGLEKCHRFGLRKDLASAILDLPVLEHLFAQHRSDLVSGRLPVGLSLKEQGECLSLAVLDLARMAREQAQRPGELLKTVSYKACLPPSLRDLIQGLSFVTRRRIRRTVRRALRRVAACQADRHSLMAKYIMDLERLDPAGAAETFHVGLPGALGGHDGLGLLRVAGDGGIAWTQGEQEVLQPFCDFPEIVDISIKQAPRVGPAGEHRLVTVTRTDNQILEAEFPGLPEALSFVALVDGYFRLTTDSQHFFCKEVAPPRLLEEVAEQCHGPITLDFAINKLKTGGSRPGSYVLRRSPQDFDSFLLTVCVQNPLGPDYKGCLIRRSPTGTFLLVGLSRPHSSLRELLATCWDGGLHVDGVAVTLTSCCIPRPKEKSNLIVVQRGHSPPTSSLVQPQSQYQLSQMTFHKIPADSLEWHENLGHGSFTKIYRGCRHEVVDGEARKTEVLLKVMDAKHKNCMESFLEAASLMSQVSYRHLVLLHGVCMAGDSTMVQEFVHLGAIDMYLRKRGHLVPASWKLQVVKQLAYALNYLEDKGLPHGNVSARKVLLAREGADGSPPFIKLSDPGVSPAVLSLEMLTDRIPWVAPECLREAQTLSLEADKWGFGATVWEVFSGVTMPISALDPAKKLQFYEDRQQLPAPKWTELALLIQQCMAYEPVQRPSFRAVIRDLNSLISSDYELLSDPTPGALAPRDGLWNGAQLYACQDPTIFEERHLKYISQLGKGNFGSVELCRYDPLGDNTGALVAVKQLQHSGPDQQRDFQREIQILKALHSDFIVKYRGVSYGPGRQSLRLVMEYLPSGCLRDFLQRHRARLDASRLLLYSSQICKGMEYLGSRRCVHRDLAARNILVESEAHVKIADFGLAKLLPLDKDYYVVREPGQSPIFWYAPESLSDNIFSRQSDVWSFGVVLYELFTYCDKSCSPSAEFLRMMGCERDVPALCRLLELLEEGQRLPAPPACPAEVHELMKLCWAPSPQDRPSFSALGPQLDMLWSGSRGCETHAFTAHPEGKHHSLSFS
Experimental: as §1, §2, §3, §4

[8] = tested on: RS4;11 cells; assay: Cell viability assay (CellTiter-Glo) in RS4;11 cells; details: for IC50: Homo sapiens, 72 h; for cell viability inhibition in combination with pomalidomide: RS4;11, 3 days, pomalidomide at 10 μM (FIG. 4)
How it was run: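 RS4;11 cells seeded at 5000 per well, exposed for 3 days to 8- or 12-point 3-fold serial dilutions. Viability read by CellTiter-Glo luminescence; IC50 fitted by nonlinear least-squares regression.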

[9] = tested on: CCRF-CEM cells; assay: Cell viability assay (CellTiter-Glo) in CCRF-CEM cells; details: Homo sapiens, 72 h, T-ALL, 3 days
Experimental: as §5, §2, §6

[10] = tested on: WSU-DLCL2 cells; assay: Cell viability assay (CellTiter-Glo) in WSU-DLCL2 cells; details: Homo sapiens, WSUDLCL2, 72 h, WSU-DLCL2, DLBCL, 3 days
Experimental: as §5, §2, §6

[11] = tested on: HL-60 cells; assay: Cell viability assay (CellTiter-Glo) in HL-60 cells; details: Homo sapiens, 72 h, HL-60, APL, 3 days
Experimental: as §5, §2, §6

[12] = tested on: NOMO-1 cells; assay: Cell viability assay (CellTiter-Glo) in NOMO-1 cells; details: Homo sapiens, 72 h, NOMO-1, AML, 3 days
Experimental: as §5, §2, §6

[13] = RS4;11 ALL cells treated for three days, read-out: cell viability inhibition IC50
[14] = RS4;11 cells, cell viability, 3 days, CellTiter-Glo, read-out: IC50

| Compound | down stream signaling, p-STAT5 band [1] | IC50 [2] | IC50 [3] | IC50 [4] | cell viability inhibition in combination with pomalidomide [4] | down stream signaling, p-STAT3 band [5] | IC50 [6] | JAK3 protein level [7] | IC50 [8, 13] | IC50 [8, 14] | cell viability inhibition in combination with pomalidomide [8] | IC50 [9] | IC50 [10] | IC50 [11] | IC50 [12] |
| --- | --- | --- | --- | --- | --- | --- | --- | --- | --- | --- | --- | --- | --- | --- | --- |
| O=C1CCC(N2C(=O)c3ccc(NCCCCCC(=O)N4CCC(n5cc(-c6cnc7cccc(-c8cc(F)c(CN9CCOCC9)c(F)c8)c7n6)cn5)CC4)cc3C2=O)C(=O)N1 (stereo not drawn) [JA-189, 5-((6-(4-(4-(8-(3,5-difluoro-4-(morpholinomethyl)phenyl)quinoxalin-2-yl)-1H-pyrazol-1-yl)piperidin-1-yl)-6-oxohexyl)amino)-2-(2,6-dioxopiperidin-3-yl)isoindoline-1,3-dione] | weaker bands of p-STAT3 and p-STAT5 | 0.00227 µM | 0.222 µM | 0.0863 µM | greatly reduce the potencies of the degraders | weaker bands of p-STAT3 and p-STAT5 | 0.0342 µM | able to reduce JAK1, JAK2 and JAK3 protein levels | < 0.1 µM | 0.00203 µM | greatly reduce the potencies of the degraders | 0.00384 µM | 0.106 µM | 0.00254 µM | 0.0532 µM |
| CS(=O)(=O)c1ccc(-c2cccc3nc(Nc4ccc(N5CCN(CC(=O)NCCCCCCCCNc6ccc7c(c6)C(=O)N(C6CCC(=O)NC6=O)C7=O)CC5)cc4)nn23)cc1 (stereo not drawn) [JA-213] | weaker bands of p-STAT3 and p-STAT5 | 0.0231 µM | 0.319 µM | 0.0691 µM | greatly reduce the potencies of the degraders | weaker bands of p-STAT3 and p-STAT5 | 0.0627 µM | able to reduce JAK1, JAK2 and JAK3 protein levels | < 0.1 µM | 0.00845 µM | greatly reduce the potencies of the degraders | 0.0191 µM | 0.168 µM | 0.0192 µM | 0.0817 µM |

Reference: US20230093099A1, “COMPOUNDS AND METHODS OF TREATING CANCERS” (CULLGEN (SHANGHAI), INC., priority 2019, published 2023)
